# Source: ChEMBL document CHEMBL1201862, “PubChem BioAssay data set” (2004)
# The source made the active and inactive calls.
# Columns and labels:
# [1] = decrease of insulin promoter-GFP reporter – imaging, high-content screening, mouse beta cells (AID 1628); format: functional; settings: MIN6
# [2] = MIN6 cell viability loss – mouse insulinoma, cytotoxicity control, dose response (AID 2122); format: functional;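 also: confirmatory high-throughput counterscreen run to flag cytotoxic compounds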
# Jurkat = assay: blockers of NF-kB activation in T cells – Jurkat, luciferase reporter, luminescence, B- and T-cell, dose response (AID 489004); format: functional, cell-based; settings: Homo sapiens;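 also: NF-kB luciferase reporter Jurkat cells stimulated with PMA plus ionomycin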
# [3] = HEK-293T viability loss, compound-treated – cell-based, uHTS hits, cytotoxicity control for B/T-cell NF-kB inhibitor project, dose response (AID 489019); format: functional;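 also: IC50 reflects cytotoxicity as loss of cell viability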
# INS1 = assay: INS-1E survival protection against cytokine death – cell-based, luminescence, retest, dose response (AID 449756); format: functional; settings: Rattus norvegicus;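 also: cell death triggered by IL-1 beta plus TNF-alpha plus IFN-gamma mixture; protective hits raise ATP signal compared with cytokine alone wells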
# [4] = reduction of Shn3 3'UTR-driven luciferase in osteoblasts – cell-based, Clone20 osteoblasts, firefly luciferase, cherry-picked, dose response (AID 624132); format: functional;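 also: firefly luciferase luminescence from reporter carrying the Shn3 3'UTR in osteoblasts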
# [5] = loss of viability in HepG2 cells – cell-based, CellTiter-Glo, cherry-picked, cytotoxicity control for Shn3 inhibitor project, dose response (AID 624134); format: functional
# [6] = non-specific 3'UTR reporter inhibition in Clone20-Shn3RL – cell-based, Renilla luciferase, cherry-picked, counter-screen for Shn3 inhibitor project, dose response (AID 624133); format: functional
# [7] = molecular target: COUP transcription factor 2 (Homo sapiens, UniProt P24468); assay: Luminescence-based cell-based high throughput dose response assay to identify inhibitors of COUP-TFII (NR2F2).; format: functional;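 also: HEK293 cells transiently cotransfected with COUP-TFII expression vector and reporter; luciferase reporter luminescence driven by COUP-TFII from the pX2-168 reporter plasmid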
# [8] = Shn3 3'UTR reporter signal decrease – cell-based, Clone20 osteoblasts, firefly luciferase, cherry-pick, set 2, Schnurri-3 inhibitor project, dose response (AID 720490); format: functional;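 also: actives lower the luminescence signal as inhibitors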
# [9] = NIH-3T3 fibroblast cytotoxicity, dose response, cytotoxicity control, cell-based, fluorescence, Alamar Blue, secondary assay (AID 2327); format: functional;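 also: NIH-3T3 mouse fibroblasts cultured with fluconazole at 8 µg/mL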
# [10] = fluconazole-exposed Candida albicans growth modulators – fluorescence, retest, confirmation (AID 2467); format: functional, cell-based
# [11] = molecular target: T1, Serine/threonine-protein phosphatase (Candida dubliniensis (strain CD36 / CBS 7987 / NCPF 3949 / NRRLY-17841) (Yeast), UniProt B9W6M3); assay: blockers of CaCl2-induced CDRE-lacZ signaling – S. cerevisiae, luminescence, secondary, dose response (AID 2388); format: functional, cell-based;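 also: yeast reporter cells carrying a calcineurin-responsive lacZ construct stimulated with calcium chloride; luminescent beta-galactosidase reporter signal in whole cells rather than isolated phosphatase activity; potency for inhibition where a drop in reporter signal means calcineurin blockade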
# T1 sequence (B9W6M3 whole entry): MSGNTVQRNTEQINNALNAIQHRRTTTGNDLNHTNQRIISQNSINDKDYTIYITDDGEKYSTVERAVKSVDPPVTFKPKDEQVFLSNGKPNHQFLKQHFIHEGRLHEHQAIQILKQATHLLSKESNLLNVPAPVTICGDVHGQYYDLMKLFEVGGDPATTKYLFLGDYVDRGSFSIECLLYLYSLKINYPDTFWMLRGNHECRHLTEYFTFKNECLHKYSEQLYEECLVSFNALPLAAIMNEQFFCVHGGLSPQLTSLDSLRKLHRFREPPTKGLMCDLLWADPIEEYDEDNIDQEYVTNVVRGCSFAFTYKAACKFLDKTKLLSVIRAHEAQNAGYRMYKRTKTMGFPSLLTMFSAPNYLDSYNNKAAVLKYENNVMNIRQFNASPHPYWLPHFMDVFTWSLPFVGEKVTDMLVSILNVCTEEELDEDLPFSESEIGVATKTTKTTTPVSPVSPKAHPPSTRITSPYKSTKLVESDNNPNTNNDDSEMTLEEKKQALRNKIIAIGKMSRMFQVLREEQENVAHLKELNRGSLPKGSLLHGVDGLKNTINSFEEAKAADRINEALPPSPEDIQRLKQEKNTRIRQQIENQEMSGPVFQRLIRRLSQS
# [12] = molecular target: T1, Serine/threonine-protein phosphatase; assay: Fluorescence Cell-Based Secondary Assay to Identify Inhibitors of Calcineurin. [Related pubchem assays (depositor defined):AID1979, AID2007]; format: functional
# [13] = molecular target: ATP-dependent molecular chaperone HSP82 (Candida albicans (strain WO-1) (Yeast), UniProt C4YTQ8); assay: steroid-induced GRE reporter decrease in yeast – S. cerevisiae, luminescence, Hsp90 inhibitor project, dose response (AID 2400); format: functional, cell-based;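 also: beta-galactosidase luminescence from glucocorticoid response element reporter as proxy for Hsp90 function; inhibitor potency where signal loss means Hsp90 inhibition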
# ATP-dependent molecular chaperone HSP82, sequence (C4YTQ8 whole entry): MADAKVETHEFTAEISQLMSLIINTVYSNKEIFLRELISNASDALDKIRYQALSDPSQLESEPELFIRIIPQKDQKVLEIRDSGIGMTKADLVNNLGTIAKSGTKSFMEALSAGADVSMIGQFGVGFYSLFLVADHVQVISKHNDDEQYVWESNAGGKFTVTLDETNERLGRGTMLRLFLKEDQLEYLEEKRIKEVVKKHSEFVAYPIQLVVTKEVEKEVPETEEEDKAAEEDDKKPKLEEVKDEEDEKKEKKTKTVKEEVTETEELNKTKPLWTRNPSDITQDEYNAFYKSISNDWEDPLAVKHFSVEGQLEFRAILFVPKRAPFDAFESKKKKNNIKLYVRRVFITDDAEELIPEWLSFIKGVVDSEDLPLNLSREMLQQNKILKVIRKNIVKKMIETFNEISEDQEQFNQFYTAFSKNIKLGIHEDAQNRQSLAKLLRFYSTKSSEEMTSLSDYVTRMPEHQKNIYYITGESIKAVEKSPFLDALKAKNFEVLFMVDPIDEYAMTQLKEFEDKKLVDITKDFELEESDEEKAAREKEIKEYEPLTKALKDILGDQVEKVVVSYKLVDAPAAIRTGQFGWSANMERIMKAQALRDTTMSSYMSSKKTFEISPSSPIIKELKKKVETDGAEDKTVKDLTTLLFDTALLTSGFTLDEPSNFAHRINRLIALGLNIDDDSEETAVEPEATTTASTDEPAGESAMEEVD
# COUP transcription factor 2, sequence (P24468 whole entry): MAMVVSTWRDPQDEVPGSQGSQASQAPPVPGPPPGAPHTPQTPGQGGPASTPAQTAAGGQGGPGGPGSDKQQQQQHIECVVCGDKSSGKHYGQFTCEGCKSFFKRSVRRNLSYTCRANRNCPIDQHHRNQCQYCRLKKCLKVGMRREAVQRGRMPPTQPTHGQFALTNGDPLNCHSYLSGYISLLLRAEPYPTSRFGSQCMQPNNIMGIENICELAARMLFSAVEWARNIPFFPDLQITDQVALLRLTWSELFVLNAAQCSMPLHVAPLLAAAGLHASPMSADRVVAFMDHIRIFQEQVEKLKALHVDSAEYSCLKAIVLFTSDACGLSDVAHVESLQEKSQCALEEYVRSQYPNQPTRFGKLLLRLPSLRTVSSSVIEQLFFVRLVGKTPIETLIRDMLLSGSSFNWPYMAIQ
SMILES,IC50 [1],IC50 [2],IC50 (Jurkat),IC50 [3],AC50 (INS1),AC50 [4],AC50 [5],AC50 [6],IC50 [7],AC50 [8],EC50 [9],EC50 [10],EC50 [11],EC50 [12],EC50 [13]
Cn1nc(CC(=O)Nc2ccc3c(c2)OCCO3)c2ccccc2c1=O,0.797 µM (active),0.552 µM (active),> 80 µM (inactive),> 80 µM (inactive),2.77 µM (active),0.899 µM (active),55.8 µM (active),3.62 µM (active),6.56 µM (active),1.36 µM (active),,,,,
COc1ccc(-n2nc(C(=O)NCC(=O)N3CCN(c4ccccc4)CC3)c3ccccc3c2=O)c(OC)c1,,,,,,,,,,,> 160 µM (inactive),0.819 µM (active),> 180 µM (inactive),> 285 µM (inactive),> 160 µM (inactive)
